From ChEMBL document CHEMBL6153141, “Design, Synthesis, and Mechanism Study of Novel BMX Inhibitors Based on the Core of 1,3,5-Triazin-2-Amine for the Treatment of Gastric Carcinoma” (J Med Chem, 2025)
Activity calls are given as the source filed them. The calls are words filed in the database; no cut-off is given here.

Tests used:
HGC-27 [1] = test: Antiproliferative activity against human HGC-27 cells assessed as inhibition of cell viability upto 50 uM by MTT assay; format: functional, cell-based; conditions: time 24-72 hrs
PC-3 = test: cells; conditions: Homo sapiens, PC-3, 72 h
Description: Anticancer activity against human PC-3 cells assessed as inhibition of cell proliferation incubated for 72 hrs by MTT assay

Cytochrome P450 2C19 = Cytochrome P450 2C19 (Homo sapiens, UniProt P33261); test: Inhibition of CYP2C19 in human liver microsomes using omeprazole as substrate preincubated for 5 mins followed by NADPH addition and measured after 10 mins by LC-MS/MS analysis; format: ADME, Microsome
[2] = Half-life in Sprague-Dawley rat at 5 mg/kg, po or 5 mg/kg, iv measured after 24 hrs by LC-MS/MS analysis; format: ADME, organism-based; conditions: in vivo
[3] = Oral bioavailability in Sprague-Dawley rat at 5 mg/kg measured after 24 hrs by LC-MS/MS analysis; format: ADME, organism-based; conditions: in vivo
[4] = target: Epidermal growth factor receptor (Homo sapiens, UniProt P00533); test: Inhibition of EGFR (unknown origin) in presence of ATP at Km concentration
HCC827 = test: cells; conditions: Homo sapiens, HCC827, 72 h
Description: Anticancer activity against human HCC827 cells assessed as inhibition of cell proliferation incubated for 72 hrs by MTT assay

MGC-803 [5] = test: Induction of apoptosis in human MGC-803 cells assessed as increase in apoptotic cells at 10 to 20 uM incubated for 48 hrs by Annexin V-FITC/PI staining based flow cytometric analysis; format: functional, cell-based; conditions: dose 10-20 µM
HGC-27 [6] = test: Cell cycle arrest in human HGC-27 cells assessed as accumulation of cells at G1 phase at 5 to 15 uM incubated for 48 hrs by flow cytometric analysis; format: functional, cell-based; conditions: dose 5-15 µM
MGC-803 [7] = test: Effect on mTOR expression in human MGC-803 cells at 10 to 20 uM incubated for 48 hrs by Western blot analysis; format: functional, cell-based; conditions: dose 10-20 µM
CWR22R = test: cells; conditions: Homo sapiens, 22Rv1, 72 h
Description: Anticancer activity against human 22Rv1 cells assessed as inhibition of cell proliferation incubated for 72 hrs by MTT assay

Cytochrome P450 1A2 = Cytochrome P450 1A2 (Homo sapiens, UniProt P05177); test: Inhibition of CYP1A2 in human liver microsomes using phenacetin as substrate preincubated for 5 mins followed by NADPH addition and measured after 10 mins by LC-MS/MS analysis; format: ADME, Microsome
MGC-803 [8] = test: Anticancer activity against human MGC-803 cells assessed as inhibition of cell proliferation incubated for 72 hrs by MTT assay; format: functional, cell-based; conditions: MGC-803, 72 h
HGC-27 [9] = test: Antiproliferative activity against human HGC-27 cells assessed as reduction in number of EdU-positive cells incubated for 48 hrs by confocal laser scanning microscopic analysis; format: functional, cell-based; conditions: dose 5-15 µM
HGC-27 [10] = test: Anti-invasive activity in human HGC-27 cells assessed as decrease in invasion ability at 5 to 15 uM incubated for 48 hrs by transwell assay; format: functional, cell-based; conditions: dose 5-15 µM
MGC-803 [11] = test: Induction of apoptosis in LC3B knockout human MGC-803 cells assessed as increase in cleaved caspase 9 level at 20 uM by Western blot analysis; format: functional, cell-based
[12] = Toxicity in female BALB/c nude mouse model xenografted with human HGC-27 cells assessed as body weight loss at 30 mg/kg, ip administered for 21 days; format: organism-based; conditions: in vivo, 504 h, time 21 day
MGC-803 [13] = test: Inhibition of colony formation in human MGC-803 cells assessed as decrease in clonogenic ability at 2.5 to 10 uM incubated for 48 hrs by crystal violet staining based analysis; format: functional, cell-based; conditions: dose 2.5-10 µM
[14] = target: Epidermal growth factor receptor (Homo sapiens, UniProt P00533, T790M); test: Inhibition of EGFR T790M (unknown origin) in presence of ATP at Km concentration
MGC-803 [15] = test: Downregulation of BMX protein expression in human MGC-803 cells incubated for 48 hrs by Western blot analysis; format: functional, cell-based; conditions: dose 10-20 µM
PC-9 = test: cells; conditions: Homo sapiens, PC-9, 72 h
Description: Anticancer activity against human PC-9 cells assessed as inhibition of cell proliferation incubated for 72 hrs by MTT assay

HGC-27 [16] = test: Induction of autophagy in human HGC-27 cells assessed as increase in LC3B protein expression incubated for 48 hrs by Western blot analysis; format: functional, cell-based; conditions: dose 5-15 µM
MGC-803 [17] = test: Inhibition of AKT-mTOR signaling in human […] cells assessed as decrease in phosphorylated AKT expression at 10 to 20 uM incubated for 48 hrs by Western blot analysis; format: cell-based; conditions: dose 10-20 µM
[18] = Toxicity in female BALB/c nude mouse model xenografted with human HGC-27 cells assessed as effect on spleen at 30 mg/kg, ip administered for 21 days by H and E staining based analysis; format: organism-based; conditions: in vivo, 504 h, time 21 day
HGC-27 [19] = test: Induction of apoptosis in human HGC-27 cells assessed as increase in apoptotic cells at 5 to 15 uM incubated for 48 hrs by Annexin V-FITC/PI staining based flow cytometric analysis; format: functional, cell-based; conditions: dose 5-15 µM
A549 = test: cells; conditions: Homo sapiens, A549, 72 h
Description: Anticancer activity against human A549 cells assessed as inhibition of cell proliferation incubated for 72 hrs by MTT assay

DU-145 = test: cells; conditions: Homo sapiens, DU-145, 72 h
Description: Anticancer activity against human DU-145 cells assessed as inhibition of cell proliferation incubated for 72 hrs by MTT assay

[20] = Toxicity in female BALB/c nude mouse model xenografted with human HGC-27 cells assessed as effect on kidney at 30 mg/kg, ip administered for 21 days by H and E staining based analysis; format: organism-based; conditions: in vivo, 504 h, time 21 day
MGC-803 [21] = test: Antiproliferative activity against human MGC-803 cells assessed as inhibition of cell viability upto 50 uM by MTT assay; format: functional, cell-based; conditions: time 24-72 hrs
[22] = target: Tyrosine-protein kinase BTK (Homo sapiens, UniProt Q06187); test: Inhibition of BTK (unknown origin) in presence of ATP at Km concentration
HepG2 = test: Anticancer activity against human HepG2 cells assessed as inhibition of cell proliferation incubated for 72 hrs by MTT assay; format: functional, cell-based; conditions: HepG2, 72 h
Cytochrome P450 2D6 = Cytochrome P450 2D6 (Homo sapiens, UniProt P10635); test: Inhibition of CYP2D6 in human liver microsomes using dextromethorphan as substrate preincubated for 5 mins followed by NADPH addition and measured after 10 mins by LC-MS/MS analysis; format: ADME, Microsome
MDA-MB-231 = test: Anticancer activity against human MDA-MB-231 cells assessed as inhibition of cell proliferation incubated for 72 hrs by MTT assay; format: functional, cell-based; conditions: MDA-MB-231, 72 h
[23] = Cmax in Sprague-Dawley rat at 5 mg/kg, po or 5 mg/kg, iv measured after 24 hrs by LC-MS/MS analysis; format: ADME, organism-based; conditions: in vivo
MGC-803 [24] = test: Induction of apoptosis in human MGC-803 cells assessed as increase in cleaved caspase 3 level incubated for 48 hrs by Western blot analysis; format: functional, cell-based; conditions: dose 10-20 µM
NCI-H1975 = test: cells; conditions: Homo sapiens, NCI-H1975, 72 h
Description: Anticancer activity against human NCI-H1975 cells assessed as inhibition of cell proliferation incubated for 72 hrs by MTT assay

MGC-803 [25] = test: Anti-invasive activity in human MGC-803 cells assessed as decrease in invasion ability at 10 to 20 uM incubated for 48 hrs by transwell assay; format: functional, cell-based; conditions: dose 10-20 µM
Cytochrome P450 2C9 = Cytochrome P450 2C9 (Homo sapiens, UniProt P11712); test: Inhibition of CYP2C9 in human liver microsomes using tolbutamide as substrate preincubated for 5 mins followed by NADPH addition and measured after 10 mins by LC-MS/MS analysis; format: ADME, Microsome
MCF7 = test: Anticancer activity against human MCF7 cells assessed as inhibition of cell proliferation incubated for 72 hrs by MTT assay; format: functional, cell-based; conditions: MCF7, 72 h

Tyrosine-protein kinase BTK, sequence (Q06187 whole entry): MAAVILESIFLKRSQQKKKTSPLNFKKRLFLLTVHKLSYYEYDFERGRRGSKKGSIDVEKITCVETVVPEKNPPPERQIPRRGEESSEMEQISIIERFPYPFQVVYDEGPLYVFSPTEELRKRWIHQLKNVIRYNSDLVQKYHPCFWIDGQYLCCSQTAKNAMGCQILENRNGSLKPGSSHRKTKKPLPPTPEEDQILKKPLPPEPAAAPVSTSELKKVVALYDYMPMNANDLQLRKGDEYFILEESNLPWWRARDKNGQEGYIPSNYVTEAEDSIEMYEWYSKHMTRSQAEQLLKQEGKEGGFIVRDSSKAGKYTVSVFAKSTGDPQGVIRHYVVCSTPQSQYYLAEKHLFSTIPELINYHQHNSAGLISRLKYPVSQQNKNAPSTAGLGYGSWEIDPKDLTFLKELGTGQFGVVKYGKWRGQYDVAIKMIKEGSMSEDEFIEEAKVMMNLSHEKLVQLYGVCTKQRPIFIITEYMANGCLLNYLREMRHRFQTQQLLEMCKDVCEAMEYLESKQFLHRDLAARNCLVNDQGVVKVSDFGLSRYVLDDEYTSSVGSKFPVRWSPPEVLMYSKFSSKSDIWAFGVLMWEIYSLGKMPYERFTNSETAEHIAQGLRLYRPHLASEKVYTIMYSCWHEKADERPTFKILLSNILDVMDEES
Epidermal growth factor receptor (Homo sapiens, UniProt P00533, T790M), sequence (P00533 25-1210 T790M limits assumed): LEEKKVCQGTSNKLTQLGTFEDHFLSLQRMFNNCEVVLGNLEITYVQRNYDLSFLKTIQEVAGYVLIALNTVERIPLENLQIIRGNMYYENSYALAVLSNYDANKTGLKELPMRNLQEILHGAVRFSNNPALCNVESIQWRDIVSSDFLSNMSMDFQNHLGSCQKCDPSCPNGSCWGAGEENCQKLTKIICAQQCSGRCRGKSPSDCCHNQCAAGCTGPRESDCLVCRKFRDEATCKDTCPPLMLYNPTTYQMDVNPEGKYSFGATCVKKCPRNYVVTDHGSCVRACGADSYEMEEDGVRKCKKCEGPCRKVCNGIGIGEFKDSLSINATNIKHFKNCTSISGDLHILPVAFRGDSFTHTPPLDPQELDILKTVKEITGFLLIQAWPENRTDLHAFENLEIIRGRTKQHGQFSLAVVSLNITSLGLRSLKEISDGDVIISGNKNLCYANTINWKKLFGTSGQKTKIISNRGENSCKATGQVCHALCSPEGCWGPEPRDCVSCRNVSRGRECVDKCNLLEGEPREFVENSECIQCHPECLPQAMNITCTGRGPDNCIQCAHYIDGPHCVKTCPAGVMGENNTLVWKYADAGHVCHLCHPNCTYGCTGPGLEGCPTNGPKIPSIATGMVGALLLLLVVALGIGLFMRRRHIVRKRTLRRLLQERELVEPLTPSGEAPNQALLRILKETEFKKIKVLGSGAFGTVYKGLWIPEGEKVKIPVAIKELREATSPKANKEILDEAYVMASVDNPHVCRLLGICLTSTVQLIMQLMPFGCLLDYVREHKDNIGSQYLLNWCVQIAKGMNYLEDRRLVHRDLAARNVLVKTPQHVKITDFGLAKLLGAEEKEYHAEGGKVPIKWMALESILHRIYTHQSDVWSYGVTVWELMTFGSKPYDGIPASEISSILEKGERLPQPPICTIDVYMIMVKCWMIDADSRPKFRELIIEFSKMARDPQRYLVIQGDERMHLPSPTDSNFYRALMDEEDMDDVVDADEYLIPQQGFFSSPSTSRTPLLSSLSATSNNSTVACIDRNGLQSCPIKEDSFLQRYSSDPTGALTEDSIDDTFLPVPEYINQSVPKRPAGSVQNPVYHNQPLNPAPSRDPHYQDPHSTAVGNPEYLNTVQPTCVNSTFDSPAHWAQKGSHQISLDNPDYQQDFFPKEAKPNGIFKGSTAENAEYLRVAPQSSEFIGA
Cytochrome P450 1A2, sequence (P05177 whole entry): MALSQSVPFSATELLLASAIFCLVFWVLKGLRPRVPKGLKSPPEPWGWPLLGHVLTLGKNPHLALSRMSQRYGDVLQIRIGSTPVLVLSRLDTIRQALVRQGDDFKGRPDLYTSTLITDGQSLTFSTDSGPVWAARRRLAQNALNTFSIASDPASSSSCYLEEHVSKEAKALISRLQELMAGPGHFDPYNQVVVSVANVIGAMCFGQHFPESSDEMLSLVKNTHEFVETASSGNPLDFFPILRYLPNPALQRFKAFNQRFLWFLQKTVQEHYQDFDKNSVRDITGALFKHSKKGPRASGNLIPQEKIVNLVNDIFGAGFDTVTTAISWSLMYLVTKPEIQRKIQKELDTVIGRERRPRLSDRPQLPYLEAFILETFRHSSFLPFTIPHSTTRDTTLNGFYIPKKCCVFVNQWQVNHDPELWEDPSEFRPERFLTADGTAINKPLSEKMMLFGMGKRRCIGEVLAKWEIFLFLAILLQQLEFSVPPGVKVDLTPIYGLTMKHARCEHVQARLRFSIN
Cytochrome P450 2D6, sequence (P10635 whole entry): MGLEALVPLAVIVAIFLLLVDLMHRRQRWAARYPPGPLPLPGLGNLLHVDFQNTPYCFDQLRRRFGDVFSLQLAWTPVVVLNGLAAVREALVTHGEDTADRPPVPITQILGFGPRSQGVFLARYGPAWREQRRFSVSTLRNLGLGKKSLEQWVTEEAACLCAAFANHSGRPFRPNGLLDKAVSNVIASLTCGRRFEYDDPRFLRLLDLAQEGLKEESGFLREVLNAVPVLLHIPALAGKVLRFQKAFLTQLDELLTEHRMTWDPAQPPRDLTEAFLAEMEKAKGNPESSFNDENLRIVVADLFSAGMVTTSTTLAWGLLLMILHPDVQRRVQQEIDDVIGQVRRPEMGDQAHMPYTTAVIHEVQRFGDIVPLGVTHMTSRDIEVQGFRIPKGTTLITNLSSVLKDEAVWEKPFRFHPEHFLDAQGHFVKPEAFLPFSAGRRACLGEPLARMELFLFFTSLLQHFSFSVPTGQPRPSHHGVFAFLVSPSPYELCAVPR
Epidermal growth factor receptor (Homo sapiens, UniProt P00533), sequence (P00533 whole entry): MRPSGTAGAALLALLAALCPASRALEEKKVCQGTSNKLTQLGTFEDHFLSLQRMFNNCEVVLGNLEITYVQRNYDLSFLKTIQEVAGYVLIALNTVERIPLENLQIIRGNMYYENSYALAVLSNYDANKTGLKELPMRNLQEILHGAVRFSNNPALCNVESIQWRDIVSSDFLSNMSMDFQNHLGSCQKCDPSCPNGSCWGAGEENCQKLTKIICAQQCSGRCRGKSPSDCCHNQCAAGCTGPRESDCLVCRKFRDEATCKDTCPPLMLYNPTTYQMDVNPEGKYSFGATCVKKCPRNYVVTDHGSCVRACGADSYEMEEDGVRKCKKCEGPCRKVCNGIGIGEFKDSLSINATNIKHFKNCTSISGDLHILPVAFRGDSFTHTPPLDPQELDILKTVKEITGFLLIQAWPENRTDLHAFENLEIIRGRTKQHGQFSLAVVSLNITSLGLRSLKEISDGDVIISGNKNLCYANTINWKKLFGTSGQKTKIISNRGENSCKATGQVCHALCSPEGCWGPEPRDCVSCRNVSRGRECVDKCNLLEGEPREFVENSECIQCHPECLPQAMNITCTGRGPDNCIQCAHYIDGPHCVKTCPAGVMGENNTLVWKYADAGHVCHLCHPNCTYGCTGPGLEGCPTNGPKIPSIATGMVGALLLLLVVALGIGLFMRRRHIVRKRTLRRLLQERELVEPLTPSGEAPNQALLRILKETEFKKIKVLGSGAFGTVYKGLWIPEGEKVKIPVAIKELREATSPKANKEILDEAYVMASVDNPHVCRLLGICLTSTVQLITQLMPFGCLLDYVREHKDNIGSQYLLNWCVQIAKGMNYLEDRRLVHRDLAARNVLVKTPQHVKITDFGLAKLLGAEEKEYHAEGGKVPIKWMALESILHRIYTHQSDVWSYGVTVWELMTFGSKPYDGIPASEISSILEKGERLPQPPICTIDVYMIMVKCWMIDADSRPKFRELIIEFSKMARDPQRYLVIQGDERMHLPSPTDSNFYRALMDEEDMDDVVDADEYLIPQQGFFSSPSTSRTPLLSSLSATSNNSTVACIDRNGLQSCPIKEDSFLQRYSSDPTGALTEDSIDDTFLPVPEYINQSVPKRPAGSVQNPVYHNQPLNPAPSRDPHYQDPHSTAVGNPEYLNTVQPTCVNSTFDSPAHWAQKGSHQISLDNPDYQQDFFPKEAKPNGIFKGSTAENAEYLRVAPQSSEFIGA
Cytochrome P450 2C19, sequence (P33261 whole entry): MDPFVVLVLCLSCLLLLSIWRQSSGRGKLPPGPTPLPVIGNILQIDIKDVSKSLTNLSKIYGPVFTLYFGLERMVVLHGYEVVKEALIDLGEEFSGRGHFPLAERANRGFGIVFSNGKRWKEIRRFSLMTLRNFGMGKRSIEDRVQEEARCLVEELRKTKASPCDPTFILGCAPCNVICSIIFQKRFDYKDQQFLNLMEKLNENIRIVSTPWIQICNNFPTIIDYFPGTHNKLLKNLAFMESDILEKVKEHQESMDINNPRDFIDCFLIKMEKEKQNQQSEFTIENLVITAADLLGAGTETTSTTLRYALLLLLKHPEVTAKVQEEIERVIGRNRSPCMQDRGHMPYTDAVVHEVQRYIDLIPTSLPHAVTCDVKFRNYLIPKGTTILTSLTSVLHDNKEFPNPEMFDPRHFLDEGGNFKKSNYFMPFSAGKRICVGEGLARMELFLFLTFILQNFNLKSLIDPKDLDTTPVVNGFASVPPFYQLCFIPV
Cytochrome P450 2C9, sequence (P11712 whole entry): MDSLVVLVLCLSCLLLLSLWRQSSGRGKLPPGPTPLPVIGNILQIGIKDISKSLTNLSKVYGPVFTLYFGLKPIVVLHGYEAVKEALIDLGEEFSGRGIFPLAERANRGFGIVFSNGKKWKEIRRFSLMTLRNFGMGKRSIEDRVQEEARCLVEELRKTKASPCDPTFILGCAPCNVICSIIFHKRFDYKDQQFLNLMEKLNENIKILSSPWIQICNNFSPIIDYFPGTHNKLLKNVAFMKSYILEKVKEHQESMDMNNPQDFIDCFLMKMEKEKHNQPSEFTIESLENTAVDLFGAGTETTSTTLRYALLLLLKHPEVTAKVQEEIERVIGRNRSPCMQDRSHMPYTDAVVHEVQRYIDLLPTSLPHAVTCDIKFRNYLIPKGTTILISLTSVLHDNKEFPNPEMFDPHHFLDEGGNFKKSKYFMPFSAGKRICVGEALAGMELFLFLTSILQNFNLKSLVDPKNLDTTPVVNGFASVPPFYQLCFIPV

With `C=CS(=O)(=O)N1CCC[C@@H](Nc2nc(N)nc(Nc3cccc(Oc4ccccc4)c3)n2)C1` as the molecule, how does the Activity (HGC-27 [1]) read?
The Activity was “Time-dependent-effect”.

What about the IC50 (PC-3) of the same molecule?
Its IC50 is 17.2 µM.

And the IC50 (Cytochrome P450 2C19)?
The IC50 was > 100 µM.

What about the half-life [2] of the same molecule?
Its half-life is 18.3 h.

What about the bioavailability [3] of the same molecule?
The bioavailability was 6.6%.

And the IC50 [4]?
The IC50 was 0.468 µM.

And the IC50 (HCC827)?
Its IC50 is 5.7 µM.

What about the Activity (MGC-803 [5]) of the same molecule?
Its Activity is “Active”.

What about the Activity (HGC-27 [6]) of the same molecule?
Its Activity is “Active”.

What about the Activity (MGC-803 [7]) of the same molecule?
Its Activity is “inactive”.

What about the IC50 (CWR22R) of the same molecule?
The IC50 was 13.4 µM.

What about the IC50 (Cytochrome P450 1A2) of the same molecule?
Its IC50 is > 100 µM.

What about the IC50 (MGC-803 [8]) of the same molecule?
Its IC50 is 14.4 µM.

And the Activity (HGC-27 [9])?
Its Activity is “Dose-dependent-effect”.

And the Activity (HGC-27 [10])?
The Activity was “Active”.

And the Activity (MGC-803 [11])?
Its Activity is “Active”.

And the Activity [12]?
The Activity was “Non-toxic”.

And the inhibition (MGC-803 [13])?
Its inhibition is “Active”.

What about the IC50 [14] of the same molecule?
Its IC50 is 0.177 µM.

And the Activity (MGC-803 [15])?
Its Activity is “Dose-dependent-effect”.

What about the IC50 (PC-9) of the same molecule?
Its IC50 is 23.3 µM.

And the Activity (HGC-27 [16])?
Its Activity is “Dose-dependent-effect”.

And the inhibition (MGC-803 [17])?
Its inhibition is “Active”.

And the Activity [18]?
Its Activity is “Non-toxic”.

What about the Activity (HGC-27 [19]) of the same molecule?
The Activity was “Active”.

And the IC50 (A549)?
Its IC50 is 29.4 µM.

What about the IC50 (DU-145) of the same molecule?
Its IC50 is 10.4 µM.

And the Activity [20]?
Its Activity is “Non-toxic”.

And the Activity (MGC-803 [21])?
The Activity was “Time-dependent-effect”.

And the IC50 [22]?
Its IC50 is 0.187 µM.

And the IC50 (HepG2)?
The IC50 was > 32 µM.

And the IC50 (Cytochrome P450 2D6)?
The IC50 was 82 µM.

And the IC50 (MDA-MB-231)?
Its IC50 is 19.7 µM.

And the Cmax [23]?
Its Cmax is 73.5 ng/mL.

What about the Activity (MGC-803 [24]) of the same molecule?
Its Activity is “Dose-dependent-effect”.

What about the IC50 (NCI-H1975) of the same molecule?
Its IC50 is 5 µM.

What about the Activity (MGC-803 [25]) of the same molecule?
The Activity was “Active”.

And the IC50 (Cytochrome P450 2C9)?
The IC50 was 16.8 µM.

And the IC50 (MCF7)?
Its IC50 is 8.3 µM.
